Reference: patent US20260373093A1, “TIMESCALE-GUIDED MICROFLUIDIC SYNTHESIS OF POLYPHENOL-IRON III NETWORK NANOCAPSULES OF HYDROPHOBIC DRUGS” (Purdue Research Foundation, priority 2023, published 2026)
“And” between values parts separate entries of the source, which are not always exact repeats. Equal entries are not always repeated. Where two headings read alike, the source gives them in different places.

Columns and labels:
Pa03C cells = assay: MTT cytotoxicity, Pa03C cells; assay type: cell-based; conditions: for cell viability: 1440 min
Protocol: Pa03C cells were seeded in 96-well plates at a density of 4000 cells per well and allowed to adhere for 24 hours. Cells were incubated with drug-free nanocapsules (pEGCGs), free paclitaxel, or EFN nanocapsules of paclitaxel at concentrations ranging from 0.001 to 10 µg/mL calculated by paclitaxel content at 37 °C and 5% CO2 for 24 hr. After the incubation, the cells were washed with PBS 3 times, and 100 μL fresh medium was added to each well. Then, cells were cultured for […] another 24 hours. After incubation, 100 μL fresh medium was changed to each well, and 10 μL MTT was added to each well, followed by a 4 h incubation for cleavage at 37 °C. Then 100 μL isopropanol with 0.04 N HCl was added to each well and mixed thoroughly with the medium by repeated pipetting. The result was read with a test wavelength of 570 nm and a reference wavelength of 630 nm using a Microplate Spectrophotometer. Experiments were performed in triplicate and presented as means±SD.

[1] = cited from earlier work
PANC-1 cells = assay: MTT cytotoxicity, PANC-1 cells (VPX); assay type: cell-based, human; conditions: 24 hr
Protocol: (§1) PANC-1 cells were seeded in 96-well plates at a density of 5000 cells per well and allowed to adhere for 24 hours. CAF19 cells were seeded in 96-well plates at a density of 1500 cells per well and allowed to adhere for 24 hours. Cells were incubated with drug-free nanocapsules (pTAs), free drug of VPX, or TFN nanocapsules of VPX at the concentrations ranging from 0.05 to 20 μM calculated by VPX content at 37 °C and 5% CO2 for 24 hr. After the incubation, the cells were washed with PBS 3 times, and 100 μL fresh medium was added to each well. Cells were cultured for another 24 hours. After incubation, 100 μL fresh medium was changed to each well, and 10 μL MTT was added to each well, followed by 4 hr incubation for cleavage at 37 °C. Then 100 μL isopropanol with 0.04 N HCl was added to each well and mixed thoroughly with the medium by repeated pipetting. The result was read with a test wavelength of 570 nm and a reference wavelength of 630 nm using a Microplate Spectrophotometer. Experiments were performed in triplicate and presented as means±SD.

CAF19 cells = assay: MTT cytotoxicity, CAF19 cells (VPX); assay type: cell-based; conditions: 24 hr
Protocol: as §1

Pancl cells = assay: MTT cytotoxicity, Panc1 cells (curcumin); assay type: cell-based, human; conditions: dosages >40 μM
Protocol: Panc 10.05 or Pancl cells were seeded in 96-well plates at a density of 5,000 cells per well and allowed to adhere overnight. Panc10.05 cells were incubated with drug-free nanocapsules (pTAs), free paclitaxel, or TFN nanocapsules of paclitaxel at the concentrations ranging from 0.001 to 10 μg mL^−1 calculated by paclitaxel content at 37 °C and 5% CO2 for 24 hr. Pancl cells were incubated with pTAs, free curcumin, or TFN nanocapsules of curcumin at the concentration of 5-160 μM calculated by curcumin content at 37 °C and 5% CO2 for 48 hr. After the incubation, the cells were washed with PBS three times, and 100 μL fresh medium was added to each well. Then cells were cultured for another 24 hours. After incubation, 100 μL fresh medium was added to each well, and 10 μL MTT was added to each well, followed by a 4 h incubation for cleavage at 37 °C. Then 100 μL isopropanol with 0.04 N HCl was added to each well and mixed thoroughly with the medium by repeated pipetting. The result was read with a test wavelength of 570 nm and a reference wavelength of 630 nm using a Microplate Spectrophotometer. Experiments were performed in triplicate and presented as means±SD.

With O=C(O[C@@H]1Cc2c(O)cc(O)cc2O[C@@H]1c1cc(O)c(O)c(O)c1)c1cc(O)c(O)c(O)c1 [EGCG, epigallocatechin-3-gallate] the anticancer activity (Pa03C cells; EGCG on its own (from EFN cytotoxicity test)) was “significant anticancer activity”.

For C=C1CC[C@H](O)C/C1=C/C=C1\CCC[C@]2(C)[C@@H]([C@H](C)CCCC(C)C)CC[C@@H]12 [VD3, vitamin D], the water solubility ([1]; room temperature) is given as less than 1 ng/mL.

For CCOC(=O)N[C@@H]1CC[C@@H]2[C@@H](C1)C[C@H]1C(=O)O[C@H](C)[C@H]1[C@H]2/C=C/c1ccc(-c2cccc(F)c2)cn1 [VPX, vorapaxar], the cell viability (PANC-1 cells; VPX treatment up to 20 μM) was “above 100%”, the toxicity (PANC-1 cells; up to 20 μM (VPX content)) was “no toxicity” and the cell viability (CAF19 cells; VPX treatment up to 20 μM) was “above 100%”. For the same compound, the toxicity (CAF19 cells; up to 20 μM (VPX content)) was “no toxicity” and the water solubility ([1]; VPX) was 1.4 μg/mL and ~ 3 μM.

For CC(=O)O[C@H]1C(=O)[C@@]2(C)[C@H]([C@H](OC(=O)c3ccccc3)[C@]3(O)C[C@H](OC(=O)[C@H](O)[C@@H](NC(=O)c4ccccc4)c4ccccc4)C(C)=C1C3(C)C)[C@]1(OC(C)=O)CO[C@@H]1C[C@@H]2O [free PTX, paclitaxel], the cell viability (Pa03C cells; PTX dosages >0.1 g/mL) is given as ~ 50%, the cell viability (Pa03C cells; dosages of 1-10 μg/mL) is given as ~ 50% and the water solubility ([1]; water) is given as greater than 1000 ng/mL.

In the case of COc1cc(/C=C/C(=O)CC(=O)/C=C/c2ccc(O)c(OC)c2)ccc1O [free curcumin, curcumin], the “suppression of cell growth” value (Pancl cells) is reported as “significant suppression of Pancl growth”.
